PubChem BioAssay (NCI)
Several values for one entry are separate records, joined by “and”; a condition that tells them apart may be missing. Equal entries are not always repeated.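 Tested at 5 concentrations; 48 h exposure; 96-well plates; endpoints linearly interpolated, else capped at highest concentration. GI50 marks 50% less growth. The concentration for full growth arrest is given as TGI.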

How the values were obtained:
Assay in all cases: growth of human tumour cells (NCI), 48 h
UACC-257 melanoma = tested on: UACC-257 melanoma
K-562 leukemia = tested on: K-562 leukemia
EKVX NSCLC = tested on: EKVX NSCLC
SNB-75 CNS = tested on: SNB-75 CNS
IGROV1 ovarian = tested on: IGROV1 ovarian
MOLT-4 leukemia = tested on: MOLT-4 leukemia
MDA-MB-435 = tested on: MDA-MB-435
M14 melanoma = tested on: M14 melanoma
SK-MEL-28 melanoma = tested on: SK-MEL-28 melanoma
SN12C renal = tested on: SN12C renal
HOP-92 NSCLC = tested on: HOP-92 NSCLC
NCI/ADR-RES ovarian = tested on: NCI/ADR-RES ovarian
NCI-H226 lung = tested on: NCI-H226 lung
OVCAR-5 ovarian = tested on: OVCAR-5 ovarian
SK-MEL-5 melanoma = tested on: SK-MEL-5 melanoma
SF-268 CNS = tested on: SF-268 CNS
RXF 393 renal = tested on: RXF 393 renal
NCI-H460 lung = tested on: NCI-H460 lung
HL-60(TB) leukemia = tested on: HL-60(TB) leukemia
SF-295 CNS = tested on: SF-295 CNS
LOX IMVI melanoma = tested on: LOX IMVI melanoma
U251 CNS = tested on: U251 CNS
SNB-19 CNS = tested on: SNB-19 CNS
UACC-62 melanoma = tested on: UACC-62 melanoma
DU-145 prostate = tested on: DU-145 prostate
MDA-MB-231 breast = tested on: MDA-MB-231 breast
PC-3 prostate = tested on: PC-3 prostate
SK-OV-3 ovarian = tested on: SK-OV-3 ovarian
SR leukemia = tested on: SR leukemia

For CS(=O)(=O)Nc1cc(-c2ccc3ncnc(Nc4ccc(F)c(Cl)c4)c3c2)cnc1Cl, the GI50 (UACC-257 melanoma) was 503 nM and 706 nM, the TGI (UACC-257 melanoma) was 7550 nM and 10400 nM and the GI50 (K-562 leukemia) was 1710 nM. For the same molecule, the TGI (K-562 leukemia) was greater than 82400 nM, the GI50 (EKVX NSCLC) was 340 nM and 352 nM and the TGI (EKVX NSCLC) was 3190 nM and 2610 nM. For the same molecule, the GI50 (SNB-75 CNS) was 132 nM and 69.7 nM, the TGI (SNB-75 CNS) was 1280 nM and 812 nM and the GI50 (IGROV1 ovarian) was 114 nM. The TGI (IGROV1 ovarian) was 495 nM, the GI50 (MOLT-4 leukemia) was 311 nM and 284 nM and the TGI (MOLT-4 leukemia) was 1810 nM and 2020 nM. For the same molecule, the GI50 (MDA-MB-435) was 605 nM and 537 nM, the TGI (MDA-MB-435) was 7030 nM and 4960 nM and the GI50 (M14 melanoma) was 477 nM and 718 nM. For the same molecule, the TGI (M14 melanoma) was 4530 nM and 6290 nM, the GI50 (SK-MEL-28 melanoma) was 345 nM and the TGI (SK-MEL-28 melanoma) was 9610 nM. The GI50 (SN12C renal) was 389 nM, the TGI (SN12C renal) was 12700 nM and the GI50 (HOP-92 NSCLC) was 162 nM and 78.2 nM. For the same molecule, the TGI (HOP-92 NSCLC) was 893 nM and 797 nM, the GI50 (NCI/ADR-RES ovarian) was 2060 nM and 2070 nM and the TGI (NCI/ADR-RES ovarian) was 30500 nM and 20000 nM. The GI50 (NCI-H226 lung) was 1630 nM and 1330 nM, the TGI (NCI-H226 lung) was 22900 nM and 13700 nM and the GI50 (OVCAR-5 ovarian) was 214 nM and 533 nM. For the same molecule, the TGI (OVCAR-5 ovarian) was 4930 nM and 8780 nM, the GI50 (SK-MEL-5 melanoma) was 410 nM and the TGI (SK-MEL-5 melanoma) was 1690 nM. The GI50 (SF-268 CNS) was 510 nM and 675 nM, the TGI (SF-268 CNS) was 8050 nM and 20100 nM and the GI50 (RXF 393 renal) was 563 nM and 310 nM. For the same molecule, the TGI (RXF 393 renal) was 4070 nM and 1710 nM, the GI50 (NCI-H460 lung) was 753 nM and 980 nM and the TGI (NCI-H460 lung) was 11500 nM and 12900 nM. The GI50 (HL-60(TB) leukemia) was 514 nM and 302 nM, the TGI (HL-60(TB) leukemia) was 14700 nM and 3350 nM and the GI50 (SF-295 CNS) was 612 nM and 606 nM. The TGI (SF-295 CNS) was 4110 nM and 3850 nM, the GI50 (LOX IMVI melanoma) was 503 nM and 468 nM and the TGI (LOX IMVI melanoma) was 3490 nM and 2780 nM. The GI50 (U251 CNS) was 511 nM and 856 nM, the TGI (U251 CNS) was 2570 nM and 9190 nM and the GI50 (SNB-19 CNS) was 673 nM and 596 nM. The TGI (SNB-19 CNS) was 10100 nM and 7920 nM, the GI50 (UACC-62 melanoma) was 255 nM and the TGI (UACC-62 melanoma) was 1560 nM. The GI50 (DU-145 prostate) was 738 nM and 766 nM, the TGI (DU-145 prostate) was 11100 nM and 13600 nM and the GI50 (MDA-MB-231 breast) was 980 nM and 1070 nM. The TGI (MDA-MB-231 breast) was 3210 nM and 5920 nM, the GI50 (PC-3 prostate) was 594 nM and 562 nM and the TGI (PC-3 prostate) was 5200 nM and 7020 nM. For the same molecule, the GI50 (SK-OV-3 ovarian) was 255 nM and 317 nM, the TGI (SK-OV-3 ovarian) was 1340 nM and 2710 nM and the GI50 (SR leukemia) was 577 nM and 2200 nM. For the same molecule, the TGI (SR leukemia) was 5560 nM and 43000 nM.
